As a reminder, the IC50 is the midpoint of a concentration-inhibition curve. Low readings indicate higher potency, high ones lower potency.

In the experiment the target is T1, VEGFR/KDR (Homo sapiens, UniProt P35968).
T1 construct: made in house; host or cells: Sf9 cells (Spodoptera frugiperda), baculovirus
T1 sequence (P35968 806-1356): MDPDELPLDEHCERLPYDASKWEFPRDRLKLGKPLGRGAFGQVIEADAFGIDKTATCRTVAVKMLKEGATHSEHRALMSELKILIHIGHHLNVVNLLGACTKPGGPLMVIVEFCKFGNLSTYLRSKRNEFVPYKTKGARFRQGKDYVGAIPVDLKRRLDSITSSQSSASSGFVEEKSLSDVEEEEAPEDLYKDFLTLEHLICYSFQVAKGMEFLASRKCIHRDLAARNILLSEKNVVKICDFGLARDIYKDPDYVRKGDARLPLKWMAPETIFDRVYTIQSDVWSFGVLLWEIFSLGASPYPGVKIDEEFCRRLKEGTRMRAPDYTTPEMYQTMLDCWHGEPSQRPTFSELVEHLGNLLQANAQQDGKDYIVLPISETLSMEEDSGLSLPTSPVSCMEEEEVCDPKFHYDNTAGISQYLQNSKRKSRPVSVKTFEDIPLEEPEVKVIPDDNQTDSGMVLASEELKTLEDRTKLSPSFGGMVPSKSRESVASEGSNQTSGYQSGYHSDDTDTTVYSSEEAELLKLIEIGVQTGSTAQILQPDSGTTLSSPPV
Description: VEGFR/KDR kinase inhibition, DELFIA assay. The format is biochemical. The settings on record: ATP 0.6 uM (2x Km), enzyme 5 nM. Put shortly:
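DELFIA time-resolved fluorescence readout using Europium-tagged anti-phosphotyrosine antibody after EDTA stop. Kinase reaction on plate-bound poly(Glu4,Tyr) ran 10-30 min at 30° C with 5 nM enzyme and 0.6 uM ATP (2× Km), following 4 min on-ice pre-incubation with compound; IC50 over a concentration range.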
For `O=C(Nc1ccc(Oc2ccnc3cc(-c4ccc(C(=O)N5CCCC5)cc4)sc23)c(F)c1)Nc1ccc(F)cc1F` [Compound 127, 1-(2,4-difluorophenyl)-3-(3-fluoro-4-(2-(4-(pyrrolidine-1-carbonyl)phenyl)thieno[3,2-b]pyridin-7-yloxy)phenyl)urea], the IC50 is under 50 nM.

The compound `O=C(O)CCNC(=O)NC1CCN(Cc2ccc(-c3cc4nccc(Oc5ccc(NC(=O)NC6CC6)cc5F)c4s3)nc2)CC1` [Compound 429] displayed an IC50 of at least 250 nM.

Take `CN1CCN(CCn2cnc(-c3cc4nccc(Oc5ccc(NC(=O)NC6CC6)cc5F)c4s3)c2)CC1` [Compound 266, 1-Cyclopropyl-3-(3-fluoro-4-(2-(1-(2-(4-methylpiperazin-1-yl)ethyl)-1H-imidazol-4-yl)thieno[3,2-b]pyridin-7-yloxy)phenyl)urea]: the IC50 was under 50 nM.

`O=C(Nc1ccc(Oc2ccnc3cc(-c4ccc(C(=O)N5CCN(CCO)CC5)cn4)sc23)c(F)c1)NC1CC1` [Compound 581, 1-cyclopropyl-3-(3-fluoro-4-(2-(5-(4-(2-hydroxyethyl)piperazine-1-carbonyl)pyridin-2-yl)thieno[3,2-b]pyridin-7-yloxy)phenyl)urea]: the IC50 was under 50 nM.

Regarding `O=C(Nc1ccc(Oc2ccnc3cc(-c4ccc(CN5CCN(C(=O)[C@H](O)CO)CC5)cn4)sc23)c(F)c1)NC1CC1` [Compound 540], the IC50 is under 50 nM.

The compound `O=C(Nc1ccc(Oc2ccnc3cc(C(=O)N4CC(O)C4)sc23)c(F)c1)NC1CC1` [Compound 462] came in with an IC50 of under 50 nM.

The compound `CN(C)C/C=C/C(=O)N1CCN(Cc2ccc(-c3cc4nccc(Oc5ccc(NC(=O)NC6CC6)cc5F)c4s3)nc2)CC1` [Compound 547, (E)-1-cyclopropyl-3-(4-(2-(5-((4-(4-(dimethylamino)but-2-enoyl)piperazin-1-yl)methyl)pyridin-2-yl)thieno[3,2-b]pyridin-7-yloxy)-3-fluorophenyl)urea] had a concentration for half-maximal inhibition (IC50) of under 50 nM.

Regarding `O=C(Nc1ccc(Oc2ccnc3cc(-c4cn(CCCN5CCOCC5)nn4)sc23)c(F)c1)NC1CC1` [Compound 385], the IC50 was under 50 nM.

Compound `CN1CCN(C(=O)Cn2cc(-c3cc4nccc(Oc5ccc(NC(=O)NC6CC6)cc5F)c4s3)nn2)CC1` [Compound 365] yielded an IC50 of under 50 nM.

The compound `O=C(O)CCCN1CCN(Cc2ccc(-c3cc4nccc(Oc5ccc(NC(=O)NC6CC6)cc5F)c4s3)nc2)CC1` [Compound 519, 4-(4-((6-(7-(4-(3-cyclopropylureido)-2-fluorophenoxy)thieno[3,2-b]pyridin-2-yl)pyridin-3-yl)methyl)piperazin-1-yl)butanoic acid] returned an IC50 of under 50 nM.

`CN(CCF)C1CCN(Cc2ccc(-c3cc4nccc(Oc5ccc(NC(=O)NC6CC6)cc5F)c4s3)nc2)CC1` [Compound 421, 1-Cyclopropyl-3-(3-fluoro-4-(2-(5-((4-((2-fluoroethyl)(methyl)amino)piperidin-1-yl)methyl)pyridin-2-yl)thieno[3,2-b]pyridin-7-yloxy)phenyl)urea]: the IC50 is under 50 nM.

Take `CC(C)(C)OC(=O)N1CCN(Cc2ccc(-c3cc4nccc(Oc5ccc(NC(=O)NC6CC6)cc5F)c4s3)nc2)CC1` [Compound 48, tert-butyl 4-((6-(7-(4-(3-cyclopropylureido)-2-fluorophenoxy)thieno[3,2-b]-pyridin-2-yl)pyridin-3-yl)methyl)piperazine-1-carboxylate]: the IC50 is under 50 nM.

The values are drawn from patent publication US8906852B2 (MethylGene Inc., priority 2010, dated 2014).
